# Data as given in patent US9101133B2, “Phenyl-substituted bicyclooctane-1,3-dione-derivatives” (BAYER INTELLECTUAL PROPERTY GMBH, priority 2010, dated 2015).
# Tests used:
# Assay type in all cases: in vivo
# LOLMU = assay: Herbicidal post-emergence action; conditions: 80 g/ha, visual assessment after about three weeks, 100% = plants have died
# Experimental: (§1) 2. Herbicidal Post-Emergence Action
# (§2) • Seeds of monocotylidonous and dicotylidonous weed and crop plants are placed in sandy loam in wood fibre pots, covered with soil and cultivated in a greenhouse under good growth conditions. Two to three weeks after sowing, the test plants are treated at the one-leaf stage. The test compounds, formulated as wettable powders (WP), are then with a water application rate of 600 l/ha (converted), with 0.2% of wetting agent added, sprayed onto the green parts of the plants in different amounts. After the test plants have been kept in the greenhouse under optimum growth conditions for about three weeks, the effect of the preparations is assessed visually in comparison to untreated controls (herbicidal effect in percent: 100% effect=the plants have died, 0% effect=like control plants). Post-Emergence, 80 g/ha
# ECHCG = assay: Herbicidal post-emergence action; conditions: 80 g/ha, visual assessment after about three weeks, 100% = plants have died
# Experimental: as §1, §2
# SETVI = assay: Herbicidal post-emergence action; conditions: visual assessment after about three weeks, 100% = plants have died; for herbicidal effect in percent, SETVI: 80 g/ha; for pest or weed control at 80 g/ha: 504 h, read-out: herbicidal effect in percent, SETVI
# Experimental: as §1, §2
# AVEFA = assay: Herbicidal post-emergence action; conditions: 80 g/ha, visual assessment after about three weeks, 100% = plants have died
# Experimental: as §1, §2
# ALOMY = assay: Herbicidal post-emergence action; conditions: 80 g/ha, visual assessment after about three weeks, 100% = plants have died
# Experimental: as §1, §2
# [1] = tested on: monocotylidonous and dicotylidonous weed and crop plants; assay: Herbicidal pre-emergence action; conditions: 320 g/ha, visual assessment after three weeks, 100% = plants have died; for herbicidal effect in percent, ALOMY: ALOMY = Alopecurus myosuroides; for herbicidal effect in percent, AVEFA: AVEFA = Avena fatua; for herbicidal effect in percent, ECHCG: ECHCG = Echinochloa crus-galli; for herbicidal effect in percent, LOLMU: LOLMU = Lolium multiflorum; for herbicidal effect in percent, SETVI: SETVI = Setaria viridis; for herbicidal effect in percent, VIOTR: VIOTR = Viola tricolor
# Description: 1. Herbicidal Pre-Emergence Action
# • Seeds of monocotylidonous and dicotylidonous weed and crop plants are placed in sandy loam in wood fibre pots and covered with soil. The test compounds, formulated in the form of wettable powders (WP), are then, as an aqueous suspension with a water application rate of 600 l/ha (converted), with 0.2% of wetting agent added, applied to the surface of the covering soil in different amounts. • After the treatment, the pots are placed in a greenhouse and kept under good growth conditions for the test plants. The visual assessment of the emergence damage on the test plants is carried out after a trial period of three weeks by comparison with the untreated controls (herbicidal effect in percent: 100% effect=the plants have died, 0% effect=like control plants).
Structure (SMILES),"herbicidal effect in percent, LOLMU (LOLMU) [%]","herbicidal effect in percent, ECHCG (ECHCG) [%]","herbicidal effect in percent, SETVI (SETVI) [%]","herbicidal effect in percent, AVEFA (AVEFA) [%]","herbicidal effect in percent, ALOMY (ALOMY) [%]","herbicidal effect in percent, ALOMY [1] [%]","herbicidal effect in percent, AVEFA [1] [%]","herbicidal effect in percent, ECHCG [1] [%]","herbicidal effect in percent, LOLMU [1] [%]","herbicidal effect in percent, SETVI [1] [%]","herbicidal effect in percent, VIOTR [1] [%]",pest or weed control at 80 g/ha (SETVI) [%]
Cc1cc(C)c(C2C(=O)C3CC(C4OCCO4)CC3C2=O)c(C)c1 (mixture of isomers) [I-a-30],90,90,90,–,–,–,–,–,–,–,–,–
Cc1cc(C)c(C2C(=O)C3CC(C=NOC(C)C)CC3C2=O)c(C)c1 (mixture of isomers) [I-a-31],90,90,100,80,90,–,–,–,–,–,–,–
Cc1cc(C)c(C2C(=O)C3CC(C4OCCCO4)CC3C2=O)c(C)c1 (mixture of isomers) [I-a-32],90,80,90,–,–,–,–,–,–,–,–,–
CCc1cc(C)cc(CC)c1C1C(=O)C2CC(C(C)=O)CC2C1=O (mixture of isomers) [I-a-33],100,100,90,100,100,–,–,–,–,–,–,–
CCc1cc(C)cc(CC)c1C1C(=O)C2CC(C(C)=NOC)CC2C1=O (mixture of isomers) [I-a-34],100,100,90,–,100,–,–,–,–,–,–,–
CCc1cc(C)cc(CC)c1C1C(=O)C2CC(C(C)O)CC2C1=O (mixture of isomers) [I-a-41],100,100,100,100,100,–,–,–,–,–,–,–
CCc1cc(C)cc(CC)c1C1C(=O)C2CC(CSC)CC2C1=O (mixture of isomers) [I-a-60],90,100,90,90,90,–,–,–,–,–,–,–
CCc1cc(C)cc(CC)c1C1=C(OCc2ccccc2)C2CC(CBr)CC2C1=O (mixture of isomers) [I-a-61],90,90,90,–,–,–,–,–,–,–,–,–
CCOC(=O)CC1CC2C(=O)C(c3c(CC)cc(C)cc3CC)=C(OCC)C2C1 (mixture of isomers) [I-a-81],80,80,90,–,80,–,–,–,–,–,–,–
CCc1cc(C)cc(CC)c1C1=C(OC(=O)C(C)(C)C)C2CC(C3OCCCO3)CC2C1=O (mixture of isomers) [I-b-3],100,100,–,–,100,100,90,100,100,100,90,–
CCc1cc(C)cc(CC)c1C1=C(OC(=O)C(C)(C)C)C2CC(C3OCCO3)CC2C1=O (mixture of isomers) [I-b-4],100,100,100,90,100,100,90,100,100,100,90,–
CCc1cc(C)cc(CC)c1C1=C(OC(=O)C(C)C)C2CC(COC(C)=O)CC2C1=O (mixture of isomers) [I-b-23],90,100,90,90,80,–,–,–,–,–,–,–
CCc1cc(C)cc(CC)c1C1=C(OC(=O)OC(C)C)C2CC(C=NOC)CC2C1=O (mixture of isomers) [I-c-14],100,100,100,100,100,–,–,–,–,–,–,–
CCOC(=O)OC1=C(c2c(CC)cc(C)cc2CC)C(=O)C2CC(COC(C)=O)CC12 (mixture of isomers) [I-c-15],90,90,80,–,–,–,–,–,–,–,–,–
CCOC(=O)CC1CC2C(=O)C(c3c(CC)cc(C)cc3CC)=C(OC(=O)OCC)C2C1 (mixture of isomers) [I-c-16],–,80,80,–,–,–,–,–,–,–,–,–
CCOC(=O)OC1=C(c2c(CC)cc(C)cc2CC)C(=O)C2CC(C(C)=O)CC12 (mixture of isomers) [I-c-17],100,90,80,90,90,–,–,–,–,–,–,–
CCOC(=O)OC1=C(c2c(CC)cc(C)cc2CC)C(=O)C2CC(C(C)=NOC)CC12 (mixture of isomers) [I-c-18],100,90,–,80,100,–,–,–,–,–,–,–
CCOC(=O)OC1=C(c2c(CC)cc(C)cc2CC)C(=O)C2CC(CCC#N)CC12 (mixture of isomers) [I-c-21],100,100,90,100,–,–,–,–,–,–,–,–
CCOC(=O)OC1=C(c2c(CC)cc(C)cc2CC)C(=O)C2CC(CCC(C)=NOC)CC12 (mixture of isomers) [I-c-24],100,100,100,80,90,–,–,–,–,–,–,–
"CCc1cc(C)cc(CC)c1C1C(=O)C2CC(CCC(C)=NOC)CC2C1=O (racemic) [I-a-42, 2-(2,6-diethyl-4-methylphenyl)-5-[3-methoxyiminobutyl]-tetrahydropentalene-1,3-dione]",100,100,–,100,90,–,–,–,–,–,–,100
"CCc1cc(C)cc(CC)c1C1C(=O)C2CC(CCC(C)=O)CC2C1=O (stereo not shown) [I-a-39, 2-(2,6-diethyl-4-methylphenyl)-5-(3-oxobutyl)-tetrahydropentalene-1,3-dione]",100,100,–,–,100,–,–,–,–,–,–,100
"CCc1cc(C)cc(CC)c1C1C(=O)C2CC(C=O)CC2C1OC(=O)C(C)(C)C (stereo not shown) [I-b-2, 2-(2,6-diethyl-4-methylphenyl)-5-formyl-3-oxooctahydropentalen-1-yl 2,2-dimethylpropanoate]",–,100,–,–,–,80,80,100,100,90,–,100
